Here are results for four compounds from patent publication US20240269129A1, “GLYCOGEN SYNTHASE KINASE 3 (GSK3) INHIBITORS FOR TREATING CTNNB1 SYNDROME” (Trustees of Tufts College, priority 2021, published 2024).

For orientation: IC50 means the concentration that inhibits the measured activity by half.

“Also recorded” adds a separate entry of the source.

In assay [1] the test system is CTNNB1 heterozygous iPSCs. Briefly: β-catenin and DKK1 protein levels in CTNNB1 heterozygous iPSCs, pilot dose-response, quantitative immunoblotting. The class given is cell-based, human. The text has this:
FIG. 14. FIG. 1. GSK3α,β inhibitors increase β-cat protein levels in (a) human CTNNB1 heterozygous glutamatergic neurons treated with BRD0320, relative to vehicle-treated het neurons, and (b) CTNNB1 het iPSCs treated with BRD0320 and LY2090314 at the indicated concentrations. Wnt target, DKK1 protein levels show similar increases to β-cat. Histograms showing comparison to (a) WT neuron levels set as 1 and (b) vehicle-treated het iPSC levels set as 1. LY2090314 increases β-cat protein levels at 10× lower concentration relative to BRD0320.
A human pluripotent stem cell line (iPSC) that lacks any pathogenic variants was made heterozygous for CTNNB1 via CRISPR-Cas9 gene editing of one allele. A premature termination (PTC+1) frameshift was introduced based on a CTNNB1 syndrome patient mutation. Haploinsufficiency was confirmed. The iPSCs were differentiated to cortical glutamatergic neurons by transfection with the transcription factor human neurogenin 2. […] As shown in FIG. 14 (a), beta-catenin protein levels were measured 24 hrs later by quantitative immunoblotting in the GSK3 inhibitor treated CTNNB1 heterozygous neurons, relative to vehicle-treated heterozygous neurons and wildtype neurons.
Beta-catenin protein levels were measured 24 hrs later by quantitative immunoblotting in the GSK3 inhibitor treated CTNNB1 heterozygous iPSCs, relative to vehicle-treated heterozygous iPSCs.

Assay [2] concerns β-catenin heterozygous mice. Kind of assay: Muscle grip strength test in β-catenin heterozygous mice. The class given is in vivo, mouse. The note with it: 30 mg/kg doses, young adult βcatHet mice. As to the method:
(§1) Drug treatments using small molecule GSK3α and GSK3β inhibitors were tested in vivo, for safe and effective amelioration of the phenotypes by assaying β-catenin protein levels, learning and motor skills effects of drug vs. vehicle on CTNNB1 heterozygote mice and control littermates. In an example, a study includes administering the small molecule GSK3 inhibitor in sequential daily doses to the βcatHet mice. The daily doses can be administered, for example, for five days, or four days, or any other number of days. At some time after the last dose, such as 1 hour, the grip strength test can be administered. Additionally, the contextual fear conditioning can be performed. Sometime later, such as 1 day later, the contextual fear conditioning tests can be performed.
(§2) Mice were administered 30 mg/kg doses of the respective compounds in the present Example. Samples of the brain and muscle from control mice, βcatHet mice (untreated), and βcatHet mice (treated) were tested for levels of β-catenin.

Another assay deals with β-catenin protein levels. Kind of assay: β-catenin protein levels in brain and skeletal muscle of treated β-catenin heterozygous mice, quantitative immunoblotting. The assay is classed as in vivo, mouse. The note with it: 30 mg/kg doses, young adult βcatHet mice. As to the method:
as §1, §2
On the technique in general: A western blot detects proteins with antibodies after separation by electrophoresis.

In another assay the target is GSK3β (Homo sapiens, UniProt P49841). Briefly: GSK3β inhibition, motility-shift microfluidic assay (Caliper) at Km of ATP. The assay is classed as biochemical. The note with it: for IC50: at Km of ATP. As to the method:
FIG. 12. Design and characterization of first paralog selective inhibitors of GSK3α and GSK3β. (a) General synthetic scheme for synthesis of the pyrazolo-tetrahydroquinolinone scaffold. (b) IC50 GSK3α and GSK3β values for inhibition were determined at Km of ATP in a motility-shift microfluidic assay (Caliper, MA) measuring phosphorylation of a synthetic substrate. Values are average of three or more experiments. Data are shown as IC50 values in μM±standard deviation. Compounds were tested in duplicate in a 12-point dose curve with 3-fold dilution starting at 33.3 μM. […] Each inhibitor was screened against 311 kinases at a 10 μM concentration. Kinases with >50% inhibition are depicted (percentage inhibition proportional to size of red dot).
Structure-based design has been aimed towards maximizing steric requirement at the R position and the corresponding differences within the selectivity pockets of GSK3α and GSK3β. […] These modifications and increased binding affinities were tolerant of simple substitutions on the phenyl ring (cf. BRD0320).

The next assay deals with GSK3α (Homo sapiens, UniProt P49840). Briefly: GSK3α inhibition, motility-shift microfluidic assay (Caliper) at Km of ATP. The assay is classed as biochemical. As to the method:
FIG. 12. […] (a) General synthetic scheme for synthesis of the pyrazolo-tetrahydroquinolinone scaffold. (b) IC50 GSK3α and GSK3β values for inhibition were determined at Km of ATP in a motility-shift microfluidic assay (Caliper, MA) measuring phosphorylation of a synthetic substrate. Values are average of three or more experiments. Data are shown as IC50 values in μM±standard deviation. Compounds were tested in duplicate in a 12-point dose curve with 3-fold dilution starting at 33.3 μM. […] Each inhibitor was screened against 311 kinases at a 10 μM concentration.

Assay [3] relates to β-catenin heterozygous mice. Kind of assay: Contextual fear conditioning (learning) in β-catenin heterozygous mice. The class given is in vivo, mouse. The following applies: 30 mg/kg doses, young adult βcatHet mice. As to the method:
FIG. 2. […] Classic spatial learning task that pairs association of a particular context with a mild foot shock; freezing in the context is measured as an indicator of learning; n=26 control, 24 BcatHet; p<0.0001 Repeated Measure ANOVA; **p<0.01, ***p<0.001 multiple comparison t-test.
as §1, §2

Sequence of GSK3β (P49841 whole entry): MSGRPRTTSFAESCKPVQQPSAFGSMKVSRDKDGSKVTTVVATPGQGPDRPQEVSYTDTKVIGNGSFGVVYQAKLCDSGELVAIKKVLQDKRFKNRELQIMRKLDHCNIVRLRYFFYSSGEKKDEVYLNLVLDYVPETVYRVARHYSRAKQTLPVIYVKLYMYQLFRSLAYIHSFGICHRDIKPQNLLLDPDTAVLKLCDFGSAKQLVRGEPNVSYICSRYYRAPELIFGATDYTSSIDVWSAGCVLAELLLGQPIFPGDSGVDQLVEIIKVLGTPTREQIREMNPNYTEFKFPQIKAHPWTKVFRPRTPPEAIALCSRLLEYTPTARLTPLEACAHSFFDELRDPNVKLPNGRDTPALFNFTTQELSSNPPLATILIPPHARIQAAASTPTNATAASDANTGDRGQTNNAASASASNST
Sequence of GSK3α (P49840 whole entry): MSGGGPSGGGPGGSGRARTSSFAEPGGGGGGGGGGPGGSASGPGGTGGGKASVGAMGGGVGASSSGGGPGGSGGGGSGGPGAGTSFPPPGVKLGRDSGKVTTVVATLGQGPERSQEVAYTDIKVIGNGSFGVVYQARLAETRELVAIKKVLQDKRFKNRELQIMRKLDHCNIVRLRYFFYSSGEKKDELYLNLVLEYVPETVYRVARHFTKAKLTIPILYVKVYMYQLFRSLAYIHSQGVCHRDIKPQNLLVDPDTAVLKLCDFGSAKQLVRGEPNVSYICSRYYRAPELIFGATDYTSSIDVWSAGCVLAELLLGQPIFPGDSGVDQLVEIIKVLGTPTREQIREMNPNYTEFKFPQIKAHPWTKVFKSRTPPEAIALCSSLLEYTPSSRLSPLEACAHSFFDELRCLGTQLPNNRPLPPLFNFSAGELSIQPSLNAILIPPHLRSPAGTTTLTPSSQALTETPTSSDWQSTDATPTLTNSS

On to `O=C1NC(=O)C(c2cnc3ccccn23)=C1c1cn2c3c(cc(F)cc13)CN(C(=O)N1CCCCC1)CC2` [LY2090314, 3-(9-fluoro-2-(piperidine-1-carbonyl)-1,2,3,4-tetrahydro-[1,4]diazepino[6,7,1-hi]indol-7-yl)-4-(imidazo[1,2-a]pyridin-3-yl)-1H-pyrrole-2,5-dione], for which the “β-cat protein levels in CTNNB1 het iPSCs relative to vehicle-treated het iPSCs” value in assay [1] (BRD0320 10 μM, 30 μM, LY2090314 0.1 μM, 0.3 μM, 24 hrs) is recorded as “increase”. Moreover, in assay [1] (CTNNB1 het iPSCs), the “concentration that increases β-cat protein levels, relative to BRD0320” value stood at 10 × lower.

Consider `CC(C)(C)Cc1[nH]nc2c1[C@](C)(c1ccccc1)C1=C(CC(C)(C)CC1=O)N2` [BRD3731], for which, in assay [2], the muscle grip strength entry is given as “significant increase; also recorded: trend toward improvement”. Also, the “β-catenin protein levels in β-catenin heterozygous mouse brain and skeletal muscle relative to vehicle treated heterozygote” value in the assay on β-catenin protein levels is “significantly increased”. For the same compound, on GSK3β, the “selectivity for GSK3β” value is 14 fold and the half-maximal inhibitory concentration (IC50) came out at 15 nM. Moreover, the IC50 at GSK3α (at Km of ATP) was 215 nM. For the same compound, the “learning (contextual fear conditioning)” value in assay [3] was “slight significant improvement”.

As for `CC[C@@]1(c2ccccc2)C2=C(CC(C)(C)CC2=O)Nc2[nH]ncc21` [BRD0705], in assay [2], the muscle grip strength result is given as “did not display a significant trend to improvements; also recorded: slight trend (not significant) toward improvements”. The 50% inhibitory concentration (IC50) on GSK3β stood at 515 nM. Moreover, the “learning (contextual fear conditioning)” value in assay [3] is given as “did not display a significant trend to improvements; also recorded: slight trend (not significant) toward improvements”.

Turning to `CC1(C)CC(=O)C2=C(C1)Nc1n[nH]c(C3CC3)c1[C@]2(C)c1ccccc1` [BRD0209], the “potency for the two paralogs GSK3α and GSK3β” value on GSK3α is “Equipotency”.
